The target of this assay is T1, GNAQ (WT) (Homo sapiens, UniProt P50148).
T1 construct: BPS Bioscience (parental reporter cell line) 60406
T1 sequence (P50148 1-359): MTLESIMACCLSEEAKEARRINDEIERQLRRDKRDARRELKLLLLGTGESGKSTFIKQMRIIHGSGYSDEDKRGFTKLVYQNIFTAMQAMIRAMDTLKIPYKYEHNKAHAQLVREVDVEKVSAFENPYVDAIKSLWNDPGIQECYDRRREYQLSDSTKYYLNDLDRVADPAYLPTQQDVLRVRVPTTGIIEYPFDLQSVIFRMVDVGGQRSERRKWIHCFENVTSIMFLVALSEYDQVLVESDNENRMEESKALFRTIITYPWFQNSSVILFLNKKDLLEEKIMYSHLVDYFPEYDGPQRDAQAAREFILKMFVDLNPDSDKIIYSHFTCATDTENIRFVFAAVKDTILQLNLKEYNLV
Description: SRE luciferase reporter gene-HEK293 cell line, GNAQ (WT). In kind it is cell-based. The following applies: Cell type WT, 20% FBS induction, read-out: GNAQ inhibitory rate; for inhibition at 0.9 µM: analytical concentration 900 nM; for inhibition at 2.7 µM: analytical concentration 2,700 nM; for inhibition at 8.1 µM: analytical concentration 8,100 nM. As for the experimental part: 7.5×10^4 SRE-293-GNAQ (WT) or SRE-293-GNAQ (T96S) cell lines were seeded in a 24-well plate and cultured in a carbon dioxide incubator at 37° C. SRE-293-GNAQ (WT) or SRE-293-GNAQ (T96S) cell lines was derived from additionally transfecting SRE Reporter—HEK293 Recombinant Cell Line (ERK Pathway) (Catalog number: 60406; BPS Bioscience) cells with an expression vector separately expressing GNAQ (WT) or GNAQ (T96S), and screening a stable expression cell line by the antibiotic, geneticin (type number 10131035; Thermo Fisher Scientific). GNAQ (WT) or GNAQ (T96) expression vector was derived from gene synthesis and point mutation modification of GenScript company's customized services.
After 48 hours of culture, the culture medium in the 24-well plate was replaced with minimal essential medium (MEM) containing only 0.1% fetal bovine serum (FBS) and the cells were cultured overnight.
After overnight culture, the compound to be tested was added to the cells and reacted for 2 hours, and the medium at this point was still MEM medium containing only 0.1% fetal bovine serum. After reacting with the compound to be tested for 2 hours, fetal bovine serum at a final concentration of 20% was added to the cells and reacted for at least 4 hours. After the reaction, the supernatant was removed. Next, 100 μL of cell lysis reagent CelLytic M Cell Lysis Reagent (Catalog number: C2978; Sigma) was added to the cells and aspirated repeatedly several times to form a cell lysate solution with the cells. The cell lysate solution was collected in a microcentrifuge tube and centrifuged at a high speed of 14,000 rpm for 5 minutes. After that, 30 μL of supernatant was taken out and placed in a 96-well white plate for luminescence analysis, and 30 μL of firefly luminescence analysis reagent (Catalog No. E1501; Promega) diluted 3-fold was added and mixed well, and then luminescence detection was performed with a plate enzyme immunoassay analyzer (ELISA reader) to evaluate the effect of the compound to be tested on MAPK signaling induced by GNAQ through the expression of the firefly luciferase reporter gene.
In order to confirm the effect of the compounds on MAPK signaling induced by GNAQ, the screened SRE-HEK293 cells capable of expressing exogenous GNAQ (WT) and GNAQ (T96S) genes were subjected to overnight serum starvation, and 2 hours before induction with 20% fetal bovine serum, the compound to be tested (one of Compound 1 to Compound 15 prepared above) was added to the cells, and after serum induction, the expression of the firefly luciferase reporter gene was measured. Through the above steps, the inhibition of the compound to be tested on GNAQ expression could be evaluated through the expression of the reporter gene in cells.
(In general: Reporter assays use an easily measured gene product as a stand-in for the process of interest.)

Take `O=C(Nc1cccc(-c2cc(-c3cccc(C(F)(F)F)c3)ncn2)c1)Nc1cc(Cl)nc(Cl)c1` [Compound 14]: the inhibition at 0.9 µM was less than 10%, the inhibition at 2.7 µM lay in the range of 10 to 39% and the inhibition at 8.1 µM lay in the range of 40 to 70%.
The matching figures for `O=C(Nc1ccc(-c2nc(-c3ccccc3)ncc2Cl)cc1)Nc1cc(Cl)nc(Cl)c1` [Compound 15]: less than 10%, 10 to 39% and greater than 70%.
In the case of `O=C(Nc1ccc(-c2cccc(-c3ccncc3)n2)cc1)Nc1ccc(Cl)c(C(F)(F)F)c1` [Compound 12], the inhibition at 0.9 µM fell in the range of 10 to 39%, the inhibition at 2.7 µM was 10 to 39% and the inhibition at 8.1 µM lay in the range of 40 to 70%.
As to `O=C(Nc1ccc(-c2cccc(-c3cccc(C(F)(F)F)c3)n2)cc1)Nc1cc(Cl)nc(Cl)c1` [Compound 9], the inhibition at 0.9 µM is 10 to 39%, the inhibition at 2.7 µM lay in the range of 10 to 39% and the inhibition at 8.1 µM was greater than 70%.
With `O=C(Nc1ccc(-c2ccnc(-c3ccncc3)n2)cc1)Nc1ccc(Cl)c(C(F)(F)F)c1` [Compound 6], the inhibition at 0.9 µM is less than 10%, the inhibition at 2.7 µM lay in the range of 10 to 39% and the inhibition at 8.1 µM is 10 to 39%.
As to `N#Cc1cccc(-c2cccc(-c3ccc(NC(=S)Nc4cc(Cl)nc(Cl)c4)cc3)n2)c1` [Compound 11], the inhibition at 0.9 µM was in the range of 10 to 39%, the inhibition at 2.7 µM lay within 40 to 70% and the inhibition at 8.1 µM was greater than 70%.
Taken in the same sequence, the figures for `O=C(Nc1cccc(-c2ccnc(-c3cccc(C(F)(F)F)c3)n2)c1)Nc1cc(Cl)nc(Cl)c1` [Compound 2] were 10 to 39%, 10 to 39% and greater than 70%.
Taken in the same sequence, the figures for `N#Cc1cccc(-c2nccc(-c3cccc(NC(=O)Nc4cc(Cl)nc(Cl)c4)c3)n2)c1` [Compound 3] were 10 to 39%, 10 to 39% and greater than 70%.
Turning to `O=C(Nc1ccc(-c2ccnc(-c3cccc(C(F)(F)F)c3)n2)cc1)Nc1ccc(Cl)c(C(F)(F)F)c1` [Compound 8], the inhibition at 0.9 µM is less than 10%, the inhibition at 2.7 µM was less than 10% and the inhibition at 8.1 µM was less than 10%.
In the case of `O=C(Nc1ccc(-c2ccnc(-c3cccc(C(F)(F)F)c3)n2)cc1)Nc1cc(Cl)nc(Cl)c1` [Compound 7], the inhibition at 0.9 µM was less than 10%, the inhibition at 2.7 µM was less than 10% and the inhibition at 8.1 µM lay within 10 to 39%.
Turning to `FC(F)(F)c1cccc(-c2cccc(-c3ccc(NC(=S)Nc4cc(Cl)nc(Cl)c4)cc3)n2)c1` [Compound 10], the inhibition at 0.9 µM was in the range of 10 to 39%, the inhibition at 2.7 µM was in the range of 40 to 70% and the inhibition at 8.1 µM was greater than 70%.
The matching figures for `O=C(Nc1cccc(-c2cccc(-c3ccncc3)n2)c1)Nc1cc(Cl)nc(Cl)c1` [Compound 13]: 10 to 39%, 40 to 70% and greater than 70%.
Turning to `O=C(Nc1cccc(-c2ccnc(-c3cccc(C(F)(F)F)c3)n2)c1)c1cc(Cl)nc(Cl)c1` [Compound 5], the inhibition at 0.9 µM was less than 10%, the inhibition at 2.7 µM lay within 10 to 39% and the inhibition at 8.1 µM was less than 10%.
In the case of `O=C(Nc1cccc(-c2ccnc(-c3ccc(F)c(F)c3)n2)c1)Nc1cc(Cl)nc(Cl)c1` [Compound 4], the inhibition at 0.9 µM was less than 10%, the inhibition at 2.7 µM was in the range of 10 to 39% and the inhibition at 8.1 µM was 40 to 70%.
Turning to `O=C(Nc1cccc(-c2ccnc(-c3ccnc(Cl)c3)n2)c1)Nc1cc(Cl)nc(Cl)c1` [Compound 1], the inhibition at 0.9 µM is less than 10%, the inhibition at 2.7 µM lay in the range of 10 to 39% and the inhibition at 8.1 µM was greater than 70%.

(Values after patent US20250197373A1, “SMALL MOLECULE COMPOUND OR SALT THEREOF OR SOLVATE OF THEM, GUANINE NUCLEOTIDE-BINDING PROTEIN G(Q) SUBUNIT ALPHA (GNAQ) INHIBITOR CONTAINING THE SAME AND METHOD FOR TREATING AND/OR PREVENTING CANCER” (INDUSTRIAL TECHNOLOGY RESEARCH INSTITUTE, priority 2023, published 2025).)
